# How the values were obtained:
# CD19 positive B cells = test: Free CpG activity on CD40 expression by CD19+ B cells in human PBMCs (Examples 16-17); assay type: cell-based; conditions: compared with 12070
# Method: (§1) Trima residuals were received from Vitalant and diluted 1:2 with Phosphate Buffered Saline (PBS, Gibco). Diluted blood was split into two tubes and underplayed with 15 mL Ficoll-Paque (GE Healthcare). Tubes were centrifuged for 30 minutes at 400×g. PBMCs were collected from the interface, resuspended and washed in FACS buffer (PBS with 0.5% Bovine Serum Albumin (Gibco)). After one wash, PBMCs were resuspended in Complete RPMI (RPMI+10% FBS).
# PBMCs were immediately plated onto a 96-well format (500K/well) in Complete RPMI. Five-fold serial dilutions were added to the cells from 1 uM to 64 pM of CpG polynucleotides at 37° C. under 5% CO2 for 48 hours. Cells were pelleted by centrifugation for five minutes at 400×g and stained at 4° C. in Fixable Viability Dye eFluor 780 (Thermo Fisher) diluted 1:4000 in PBS. Cells were centrifuged and stained at 4° C. in FACS buffer for 30 minutes containing FcR Blocking Reagent (Miltenyi Biotec), anti-CD19, anti-CD20, anti-CD40, anti-HLADR and anti-CD80. Cells were centrifuged and washed twice in FACS buffer and fixed in 0.5% paraformaldehyde. Cells were analyzed on ATTUNE™ NxT Flow Cytometer (Thermo Fisher Scientific), with subsequent data analysis by FLOWJO™ 10.7 (Treestar). […] B cells were identified as CD19+CD20+ cells and level of activation marker was assessed by median fluorescent intensity. […]
# CD19+CD20+ B cells = test: Anti-CD22 (TNT127):CpG conjugates on human PBMCs, CD40 on CD19+ B cells (Examples 19-20); assay type: cell-based; conditions: conjugated to antibody TNT127 (DAR1), compared to the 12070 conjugate
# Method: Trima residuals were received from Vitalant and diluted 1:2 with Phosphate Buffered Saline (PBS, Gibco). Diluted blood was split into two tubes and underplayed with 15 mL FICOLL® PAQUE medium (GE Healthcare). Tubes were centrifuged for 30 minutes at 400×g. PBMCs were collected from the interface, resuspended and washed in FACS buffer (PBS with 0.5% Bovine Serum Albumin (Gibco)). After one wash, PBMCs were resuspended in Complete RPMI (RPMI+10% FBS). PBMCs were immediately plated onto a 96-well format (500K/well) in Complete RPMI. Five-fold serial dilutions were added to the cells from 100 nM to 6.4 pM conjugated antibody at 37° C. under 5% CO2 for 48 hours. Cells were pelleted by centrifugation for five minutes at 400×g and stained at 4° C. in Fixable Viability Dye eFluor 780 (Thermo Fisher Scientific) diluted 1:4000 in PBS. Cells were centrifuged and stained at 4° C. in FACS buffer for 30 minutes containing FcR Blocking Reagent (Miltenyi Biotec), anti-CD19, anti-CD20, anti-CD40, anti-HLADR and anti-CD80. Cells were centrifuged and washed twice in FACS buffer and fixed in 0.5% paraformaldehyde. Cells were analyzed on ATTUNE™ NxT Flow Cytometer (Thermo Fisher Scientific), with subsequent data analysis by FLOWJO™ 10.7 (Treestar). Dead cells were excluded by gating on the eFluor 780-negative population.
# The activity of CD22 antibody-CpG conjugates DAR1 and DAR2 were compared for activity.
# [1] = system: EMT6 mouse mammary carcinoma cells; test: EMT6 breast cancer model, intratumoral administration; assay type: in vivo, BALB/c mice; conditions: intratumorally 2 doses every 3 days at 24 uM
# Method: 100 uL of suspended cells were subcutaneously implanted into the right flank of 6 week old female BALB/c mice (Charles River). Tumor size was measured and recorded twice a week with calipers starting 7 days post implantation until duration of the study, approximately 25 days later. Tumor volume was calculated using the following formula: (length×width×width)/2. Once tumors reached on average 180 mm^3, approximately 7 days post implantation, mice were randomized by tumor size and treatments were initiated.
# B cells = test: B cell activation by anti-CD22 (RFB4):CpG conjugates in human PBMCs (Examples 2 and 4); assay type: cell-based; conditions: for B cell activation (CD19, CD40, CD69, CD86, HLADR expression): RFB4 conjugates, DAR1, 96 hours; for B cell activation as determined by CD80 expression: conjugate to anti-CD22 antibody (SEQ ID NO: 56 and 57), DAR1, compared with conjugate of CpG (SEQ ID NO: 3) and naked CpG
# Method: (§2) PBMCs were immediately plated onto a 96-well format (500K/well) in Complete RPMI (RPMI+10% FBS). Five-fold serial dilutions were added to the cells from 100 nM to 6.4 pM of antibody and conjugated antibody and 1 uM to 64 pM of CpG polynucleotides at 37° C. under 5% CO2 for 48 to 96 hours. Cells were pelleted by centrifugation for five minutes at 400×g and stained at 4° C. in Fixable Viability Dye eFluor 780 (Thermo Fisher Scientific) diluted 1:4000 in PBS. Cells were centrifuged and stained at 4° C. in FACS buffer for 30 minutes containing FcR Blocking Reagent (Miltenyi Biotec), anti-CD19, anti-CD20, anti-CD40, anti-HLADR and anti-CD80 for B cell assays and anti-CD14, anti-CD3, anti-CD19, anti-CD14, anti-CD123, anti-CD11 c and anti-CD86 for pDC assays. Cells were centrifuged and washed twice in FACS buffer and fixed in 0.5% paraformaldehyde. CountBright™ Absolute Counting Beads (Thermo Fisher) were added to each well to count the number of cells. Cells were analyzed on ATTUNE™ NxT Flow Cytometer (Thermo Fisher Scientific), with subsequent data analysis by Flowjo 10.7 (Treestar). Dead cells were excluded by gating on the eFluor 780-negative population. Lineage specific cells were first excluded (CD19, CD3, CD14) prior to gating CD123^+CD11c^− cells to identify pDC and gating CD19^+, CD20^+ or CD19^+CD20^+ cells to identify B cells.
# as §1, with “1:4” for “1:2”, “interface and” for “interface,”, “resuspended” for “resuspended and washed”, “(Gibco)).” for “(Gibco)). After one wash, PBMCs were resuspended in Complete RPMI (RPMI+10% FBS).”
# as §2, with “antiCD11” for “anti-CD11”, “COUNTBRIGHT™” for “CountBright™”, “Fisher Scientific)” for “Fisher)”
# Various B-cell and pDC specific antibodies were conjugated with CpG 12070 (SEQ ID NO: 3), CpG (SEQ ID NOs: 9, 12, 20, 27 and 28), all with the DAR1 configuration, at their C-terminus heavy chain Q-tag ([…]) (SEQ ID NO: 49) via transglutaminase reaction. The conjugated antibodies were subsequently tested for their effects on proliferation and/or activation. […] As shown in FIGS. 5A-5D, the anti-CD22-CpG antibodies enhanced the activation of B cells as compared to naked CpG polynucleotide 12070 (SEQ ID NO: 3) and human IgG control antibody after 96 hours. As determined by CD19, CD40, CD69, CD86, and HLADR expression, only anti-CD22-CpG and CpG alone induced B cell activation. Direct delivery of CpG by a targeting antibody results in higher activation as compared to CpG alone.
Substance,B cell activation as determined by CD80 expression (B cells),other results
"7-6: CpG oligonucleotide: ""CpG 7-6 (SEQ ID NO:34)"" (DNA UCGTCGTGTCGTTT; chemically modified, pattern not given here)",–,"CD40 expression in PBMC from three donors (D559, D804 and D643) (CD19 positive B cells): higher activities; CD40 expression (CD19+CD20+ B cells): substantially better activity"
"CpG-4253: ""the free CpG (CpG-4253)""; apparently ""4523 murine CpG oligonucleotide"", ""tucgtcgtgacgtt-c3"" (SEQ ID NO:121) (DNA TUCGTCGTGACGTT; 3' C3 spacer, chemistry not fully specified; listed as Mus musculus)",–,anti-tumor potency [1]: showed anti-tumor potency
"SEQ ID NO: 9: ""modified CpGs""; tested ""as an antibody-CpG conjugate"" ""to anti-CD22 antibody (SEQ ID NO: 56 and SEQ ID NO: 57)"" (DNA UCGTCGTGTCGTTT; modified CpG; (1)..(14) Linkages as shown in Table 2 of the specification; (1)..(14) Modified as shown in Table 2 of the specification)",increased B cell activation,"B cell activation (CD19, CD40, CD69, CD86, HLADR expression) (B cells): enhanced activity"
"SEQ ID NO: 12: ""modified CpGs""; tested ""as an antibody-CpG conjugate"" ""to anti-CD22 antibody (SEQ ID NO: 56 and SEQ ID NO: 57)"" (DNA UCGTCGTGTCGTTT; modified CpG; (1)..(14) Linkages as shown in Table 2 of the specification; (1)..(14) Modified as shown in Table 2 of the specification)",increased B cell activation,–
"SEQ ID NO: 13: ""modified CpGs""; tested ""as an antibody-CpG conjugate"" ""to anti-CD22 antibody (SEQ ID NO: 56 and SEQ ID NO: 57)"" (DNA UCGTCGTGTCGTTT; modified CpG; (1)..(14) Linkages as shown in Table 2 of the specification; (1)..(14) Modified as shown in Table 2 of the specification)",increased B cell activation,–
"SEQ ID NO: 15: ""modified CpGs""; tested ""as an antibody-CpG conjugate"" ""to anti-CD22 antibody (SEQ ID NO: 56 and SEQ ID NO: 57)"" (DNA UCGTCGTGTCGTT; modified CpG; (1)..(13) Linkages as shown in Table 2 of the specification; (1)..(13) Modified as shown in Table 2 of the specification)",increased B cell activation,–
"SEQ ID NO: 20: ""modified CpGs""; tested ""as an antibody-CpG conjugate"" ""to anti-CD22 antibody (SEQ ID NO: 56 and SEQ ID NO: 57)"" (DNA UCGTCGTGTCGTT; modified CpG; (1)..(13) Linkages as shown in Table 2 of the specification; (1)..(13) Modified as shown in Table 2 of the specification)",increased B cell activation,"B cell activation (CD19, CD40, CD69, CD86, HLADR expression) (B cells): enhanced activity"
